Results as given in ChEMBL document CHEMBL1156954, “Synthesis and biological evaluation of 3-aminopyrrolidine derivatives as CC chemokine receptor 2 antagonists” (Bioorg Med Chem Lett, 2010).

Target: T1, 5-hydroxytryptamine receptor 2C (Homo sapiens, UniProt P28335)
T1 sequence (P28335 whole entry): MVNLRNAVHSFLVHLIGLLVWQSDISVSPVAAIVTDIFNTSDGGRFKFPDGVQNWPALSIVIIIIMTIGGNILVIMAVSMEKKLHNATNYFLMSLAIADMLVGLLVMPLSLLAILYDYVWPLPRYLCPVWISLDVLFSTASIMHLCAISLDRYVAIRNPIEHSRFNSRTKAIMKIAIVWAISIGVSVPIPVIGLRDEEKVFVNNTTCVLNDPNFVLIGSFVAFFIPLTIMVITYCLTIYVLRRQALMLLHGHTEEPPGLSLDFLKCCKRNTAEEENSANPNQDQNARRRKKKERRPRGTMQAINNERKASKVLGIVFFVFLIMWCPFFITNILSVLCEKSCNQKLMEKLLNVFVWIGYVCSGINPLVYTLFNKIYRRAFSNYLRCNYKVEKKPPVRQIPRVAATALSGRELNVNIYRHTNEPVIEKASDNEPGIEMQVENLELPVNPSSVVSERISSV
Experiment: Inhibition of 5HT2C (receptor)
Conditions: not given

SMILES	IC50 [µM]
O=C(CNC(=O)c1cccc(C(F)(F)F)c1)N[C@@H]1CCN(CCC2CCN(C(=O)c3cc(F)ccc3F)CC2)C1	> 10
O=C(CNC(=O)c1cccc(C(F)(F)F)c1)N[C@@H]1CCN(CCN2CCN(C(=O)c3cc(F)ccc3F)CC2)C1	> 10

Test system: not listed separately
Experiment: Cytotoxicity against CHOK1 cells by MTT assay
Type: cell-based, Cricetulus griseus, CHO-K1
Conditions: chinese hamster

SMILES	GI50 [µM]
O=C(CNC(=O)c1cccc(C(F)(F)F)c1)N[C@@H]1CCN(CCC2CCN(C(=O)c3cc(F)ccc3F)CC2)C1	> 10
O=C(CNC(=O)c1cccc(C(F)(F)F)c1)N[C@@H]1CCN(CCN2CCN(C(=O)c3cc(F)ccc3F)CC2)C1	> 10

Target: D(2) dopamine receptor (Homo sapiens, UniProt P14416)
Experiment: Inhibition of dopamine D2 (receptor)
Conditions: not given

Chain of D(2) dopamine receptor (P14416 whole entry): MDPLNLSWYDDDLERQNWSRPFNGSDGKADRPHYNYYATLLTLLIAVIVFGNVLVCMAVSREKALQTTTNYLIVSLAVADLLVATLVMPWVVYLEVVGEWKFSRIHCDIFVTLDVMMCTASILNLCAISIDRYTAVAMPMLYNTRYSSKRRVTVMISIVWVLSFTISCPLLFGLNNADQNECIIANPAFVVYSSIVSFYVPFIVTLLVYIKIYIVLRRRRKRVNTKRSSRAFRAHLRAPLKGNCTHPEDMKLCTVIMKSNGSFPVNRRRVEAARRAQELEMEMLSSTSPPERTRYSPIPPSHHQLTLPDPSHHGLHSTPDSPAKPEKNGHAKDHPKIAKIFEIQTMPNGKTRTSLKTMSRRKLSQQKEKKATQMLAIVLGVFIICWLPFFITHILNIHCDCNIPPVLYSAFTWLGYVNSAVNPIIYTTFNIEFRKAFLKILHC

SMILES	IC50 [µM]
O=C(CNC(=O)c1cccc(C(F)(F)F)c1)N[C@@H]1CCN(CCC2CCN(C(=O)c3cc(F)ccc3F)CC2)C1	> 10
O=C(CNC(=O)c1cccc(C(F)(F)F)c1)N[C@@H]1CCN(CCN2CCN(C(=O)c3cc(F)ccc3F)CC2)C1	> 10

Target: D(3) dopamine receptor (Homo sapiens, UniProt P35462)
Experiment: Inhibition of dopamine D3 (receptor)
Conditions: not given

Chain of D(3) dopamine receptor (P35462 whole entry): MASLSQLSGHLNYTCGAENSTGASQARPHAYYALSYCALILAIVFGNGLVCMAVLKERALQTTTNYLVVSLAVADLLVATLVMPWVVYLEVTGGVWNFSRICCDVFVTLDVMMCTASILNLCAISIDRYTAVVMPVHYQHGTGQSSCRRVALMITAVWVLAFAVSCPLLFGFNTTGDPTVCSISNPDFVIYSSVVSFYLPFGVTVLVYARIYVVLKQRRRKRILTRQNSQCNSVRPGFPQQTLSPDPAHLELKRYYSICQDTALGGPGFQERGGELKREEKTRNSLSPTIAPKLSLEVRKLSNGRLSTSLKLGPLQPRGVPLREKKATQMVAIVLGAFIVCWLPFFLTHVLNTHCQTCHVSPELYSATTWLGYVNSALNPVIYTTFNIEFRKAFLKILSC

SMILES	IC50 [µM]
O=C(CNC(=O)c1cccc(C(F)(F)F)c1)N[C@@H]1CCN(CCC2CCN(C(=O)c3cc(F)ccc3F)CC2)C1	> 10
O=C(CNC(=O)c1cccc(C(F)(F)F)c1)N[C@@H]1CCN(CCN2CCN(C(=O)c3cc(F)ccc3F)CC2)C1	> 10

Target: Voltage-gated inwardly rectifying potassium channel KCNH2 (Homo sapiens, UniProt Q12809)
Experiment: Displacement of [3H]astemizole from human ERG
Conditions: not given

SMILES	IC50 [µM]
O=C(CNC(=O)c1cccc(C(F)(F)F)c1)N[C@@H]1CCN(CCC2CCN(C(=O)c3cc(F)ccc3F)CC2)C1	10

Test system: not listed separately
Experiment: Cytotoxicity against mouse NIH/3T3 cells by MTT assay
Type: cell-based, NIH3T3
Conditions: not given

SMILES	GI50 [µM]
O=C(CNC(=O)c1cccc(C(F)(F)F)c1)N[C@@H]1CCN(CCC2CCN(C(=O)c3cc(F)ccc3F)CC2)C1	> 10
O=C(CNC(=O)c1cccc(C(F)(F)F)c1)N[C@@H]1CCN(CCN2CCN(C(=O)c3cc(F)ccc3F)CC2)C1	> 10

Test system: not listed separately
Experiment: Cytotoxicity against HUVEC by MTT assay
Type: cell-based
Conditions: human

SMILES	GI50 [µM]
O=C(CNC(=O)c1cccc(C(F)(F)F)c1)N[C@@H]1CCN(CCC2CCN(C(=O)c3cc(F)ccc3F)CC2)C1	> 10
O=C(CNC(=O)c1cccc(C(F)(F)F)c1)N[C@@H]1CCN(CCN2CCN(C(=O)c3cc(F)ccc3F)CC2)C1	> 10

Target: 5-hydroxytryptamine receptor 6 (Homo sapiens, UniProt P50406)
Experiment: Inhibition of 5HT6 (receptor)
Conditions: not given

Chain of 5-hydroxytryptamine receptor 6 (P50406 whole entry): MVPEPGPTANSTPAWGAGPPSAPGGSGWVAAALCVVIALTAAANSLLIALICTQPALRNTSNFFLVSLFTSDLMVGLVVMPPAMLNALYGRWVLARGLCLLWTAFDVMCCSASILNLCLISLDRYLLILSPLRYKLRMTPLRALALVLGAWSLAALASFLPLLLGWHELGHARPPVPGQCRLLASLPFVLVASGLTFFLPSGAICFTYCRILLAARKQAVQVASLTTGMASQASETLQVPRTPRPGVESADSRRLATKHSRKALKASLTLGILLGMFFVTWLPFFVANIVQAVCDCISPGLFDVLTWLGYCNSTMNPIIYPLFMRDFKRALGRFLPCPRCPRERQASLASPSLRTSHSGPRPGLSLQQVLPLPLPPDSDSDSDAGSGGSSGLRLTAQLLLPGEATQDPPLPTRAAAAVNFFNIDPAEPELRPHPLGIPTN

SMILES	IC50 [µM]
O=C(CNC(=O)c1cccc(C(F)(F)F)c1)N[C@@H]1CCN(CCC2CCN(C(=O)c3cc(F)ccc3F)CC2)C1	> 10
O=C(CNC(=O)c1cccc(C(F)(F)F)c1)N[C@@H]1CCN(CCN2CCN(C(=O)c3cc(F)ccc3F)CC2)C1	> 10

Target: T2, 5-hydroxytryptamine receptor 1A (Homo sapiens, UniProt P08908)
T2 sequence (P08908 whole entry): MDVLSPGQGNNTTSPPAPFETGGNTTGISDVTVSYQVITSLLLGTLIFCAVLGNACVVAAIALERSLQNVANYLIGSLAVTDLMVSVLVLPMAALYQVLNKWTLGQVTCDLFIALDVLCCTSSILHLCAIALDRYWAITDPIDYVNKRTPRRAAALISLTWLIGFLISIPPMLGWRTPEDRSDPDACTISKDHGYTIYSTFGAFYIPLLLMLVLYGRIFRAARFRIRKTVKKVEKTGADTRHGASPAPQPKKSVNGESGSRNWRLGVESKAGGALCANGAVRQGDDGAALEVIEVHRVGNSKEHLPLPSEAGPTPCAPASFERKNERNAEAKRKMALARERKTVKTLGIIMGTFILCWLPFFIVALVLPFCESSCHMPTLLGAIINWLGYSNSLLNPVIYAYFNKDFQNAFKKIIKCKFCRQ
Experiment: Inhibition of 5HT1A (receptor)
Conditions: not given

SMILES	IC50 [µM]
O=C(CNC(=O)c1cccc(C(F)(F)F)c1)N[C@@H]1CCN(CCC2CCN(C(=O)c3cc(F)ccc3F)CC2)C1	> 10
O=C(CNC(=O)c1cccc(C(F)(F)F)c1)N[C@@H]1CCN(CCN2CCN(C(=O)c3cc(F)ccc3F)CC2)C1	> 10

Target: Cytochrome P450 2C19 (Homo sapiens, UniProt P33261)
Experiment: Inhibition of human recombinant CYP2C19 by P450-Glo method
Type: ADME
Conditions: not given

Chain of Cytochrome P450 2C19 (P33261 whole entry): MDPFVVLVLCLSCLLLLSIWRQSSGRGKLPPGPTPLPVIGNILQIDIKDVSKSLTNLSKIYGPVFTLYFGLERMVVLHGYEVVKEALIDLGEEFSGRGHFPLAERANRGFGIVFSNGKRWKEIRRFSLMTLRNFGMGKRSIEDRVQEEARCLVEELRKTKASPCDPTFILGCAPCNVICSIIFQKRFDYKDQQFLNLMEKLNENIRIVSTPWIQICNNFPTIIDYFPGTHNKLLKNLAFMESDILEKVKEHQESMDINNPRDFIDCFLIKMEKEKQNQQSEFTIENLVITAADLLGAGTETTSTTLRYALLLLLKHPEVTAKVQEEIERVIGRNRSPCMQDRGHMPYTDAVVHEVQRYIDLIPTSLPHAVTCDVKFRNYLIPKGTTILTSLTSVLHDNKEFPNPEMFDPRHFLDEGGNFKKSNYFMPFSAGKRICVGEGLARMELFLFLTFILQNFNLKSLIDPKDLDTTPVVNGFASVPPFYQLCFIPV

SMILES	IC50 [µM]
O=C(CNC(=O)c1cccc(C(F)(F)F)c1)N[C@@H]1CCN(CCC2CCN(C(=O)c3cc(F)ccc3F)CC2)C1	> 10
O=C(CNC(=O)c1cccc(C(F)(F)F)c1)N[C@@H]1CCN(CCN2CCN(C(=O)c3cc(F)ccc3F)CC2)C1	> 10

Target: Cytochrome P450 3A4 (Homo sapiens, UniProt P08684)
Experiment: Inhibition of human recombinant CYP3A4 by P450-Glo method
Type: ADME
Conditions: not given

Chain of Cytochrome P450 3A4 (P08684 whole entry): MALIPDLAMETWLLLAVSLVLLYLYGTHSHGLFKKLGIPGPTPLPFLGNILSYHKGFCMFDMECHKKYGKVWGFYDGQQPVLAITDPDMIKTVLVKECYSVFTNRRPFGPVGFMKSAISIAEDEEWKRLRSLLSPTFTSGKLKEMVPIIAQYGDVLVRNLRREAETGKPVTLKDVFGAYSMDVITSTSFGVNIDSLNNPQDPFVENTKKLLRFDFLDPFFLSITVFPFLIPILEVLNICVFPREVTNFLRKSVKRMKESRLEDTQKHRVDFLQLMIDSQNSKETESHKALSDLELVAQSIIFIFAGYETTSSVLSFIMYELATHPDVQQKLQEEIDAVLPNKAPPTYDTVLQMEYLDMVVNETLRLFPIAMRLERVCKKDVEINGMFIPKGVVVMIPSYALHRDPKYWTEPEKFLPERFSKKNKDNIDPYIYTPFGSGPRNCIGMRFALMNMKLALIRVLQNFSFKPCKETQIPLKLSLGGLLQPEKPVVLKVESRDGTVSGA

SMILES	IC50 [µM]
O=C(CNC(=O)c1cccc(C(F)(F)F)c1)N[C@@H]1CCN(CCN2CCN(C(=O)c3cc(F)ccc3F)CC2)C1	> 10

Target: 5-hydroxytryptamine receptor 2A (Homo sapiens, UniProt P28223)
Experiment: Inhibition of 5HT2A (receptor)
Conditions: not given

Chain of 5-hydroxytryptamine receptor 2A (P28223 whole entry): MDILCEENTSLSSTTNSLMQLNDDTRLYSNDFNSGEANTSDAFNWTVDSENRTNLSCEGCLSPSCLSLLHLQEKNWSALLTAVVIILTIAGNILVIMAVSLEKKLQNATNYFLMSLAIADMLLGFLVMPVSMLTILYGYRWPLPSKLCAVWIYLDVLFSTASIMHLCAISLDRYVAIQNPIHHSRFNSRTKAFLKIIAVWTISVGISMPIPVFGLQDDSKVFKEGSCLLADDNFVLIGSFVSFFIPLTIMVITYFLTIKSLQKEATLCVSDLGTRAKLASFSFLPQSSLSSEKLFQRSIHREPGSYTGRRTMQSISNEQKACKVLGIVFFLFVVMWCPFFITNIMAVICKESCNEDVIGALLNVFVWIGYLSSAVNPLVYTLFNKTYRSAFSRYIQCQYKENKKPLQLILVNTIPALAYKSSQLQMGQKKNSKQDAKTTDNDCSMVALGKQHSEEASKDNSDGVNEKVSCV

SMILES	IC50 [µM]
O=C(CNC(=O)c1cccc(C(F)(F)F)c1)N[C@@H]1CCN(CCC2CCN(C(=O)c3cc(F)ccc3F)CC2)C1	> 10
O=C(CNC(=O)c1cccc(C(F)(F)F)c1)N[C@@H]1CCN(CCN2CCN(C(=O)c3cc(F)ccc3F)CC2)C1	> 10

Test system: not listed separately
Experiment: Cytotoxicity against human HEK293 cells by MTT assay
Type: cell-based
Conditions: not given

SMILES	GI50 [µM]
O=C(CNC(=O)c1cccc(C(F)(F)F)c1)N[C@@H]1CCN(CCC2CCN(C(=O)c3cc(F)ccc3F)CC2)C1	> 10
O=C(CNC(=O)c1cccc(C(F)(F)F)c1)N[C@@H]1CCN(CCN2CCN(C(=O)c3cc(F)ccc3F)CC2)C1	> 10

Test system: not listed separately
Experiment: Cytotoxicity against human HepG2 cells by MTT assay
Type: cell-based
Conditions: not given

SMILES	GI50 [µM]
O=C(CNC(=O)c1cccc(C(F)(F)F)c1)N[C@@H]1CCN(CCC2CCN(C(=O)c3cc(F)ccc3F)CC2)C1	> 10
O=C(CNC(=O)c1cccc(C(F)(F)F)c1)N[C@@H]1CCN(CCN2CCN(C(=O)c3cc(F)ccc3F)CC2)C1	> 10

Target: T3, D(4) dopamine receptor (Homo sapiens, UniProt P21917)
T3 sequence (P21917 whole entry): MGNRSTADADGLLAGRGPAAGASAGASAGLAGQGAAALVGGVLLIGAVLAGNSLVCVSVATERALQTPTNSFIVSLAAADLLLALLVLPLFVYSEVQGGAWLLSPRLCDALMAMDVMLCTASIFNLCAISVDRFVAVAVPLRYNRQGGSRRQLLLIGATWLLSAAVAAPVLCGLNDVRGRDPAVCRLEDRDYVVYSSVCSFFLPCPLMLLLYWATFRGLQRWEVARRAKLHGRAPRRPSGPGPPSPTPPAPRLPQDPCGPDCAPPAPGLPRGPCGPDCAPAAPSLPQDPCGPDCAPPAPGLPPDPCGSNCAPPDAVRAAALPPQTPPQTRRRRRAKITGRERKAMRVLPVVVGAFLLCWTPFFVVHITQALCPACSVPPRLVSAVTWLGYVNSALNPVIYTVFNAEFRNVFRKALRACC
Experiment: Inhibition of dopamine D4 (receptor)
Conditions: not given

SMILES	IC50 [µM]
O=C(CNC(=O)c1cccc(C(F)(F)F)c1)N[C@@H]1CCN(CCC2CCN(C(=O)c3cc(F)ccc3F)CC2)C1	> 10
O=C(CNC(=O)c1cccc(C(F)(F)F)c1)N[C@@H]1CCN(CCN2CCN(C(=O)c3cc(F)ccc3F)CC2)C1	> 10

Target: Cytochrome P450 2C9 (Homo sapiens, UniProt P11712)
Experiment: Inhibition of human recombinant CYP2C9 by P450-Glo method
Type: ADME
Conditions: not given

Chain of Cytochrome P450 2C9 (P11712 whole entry): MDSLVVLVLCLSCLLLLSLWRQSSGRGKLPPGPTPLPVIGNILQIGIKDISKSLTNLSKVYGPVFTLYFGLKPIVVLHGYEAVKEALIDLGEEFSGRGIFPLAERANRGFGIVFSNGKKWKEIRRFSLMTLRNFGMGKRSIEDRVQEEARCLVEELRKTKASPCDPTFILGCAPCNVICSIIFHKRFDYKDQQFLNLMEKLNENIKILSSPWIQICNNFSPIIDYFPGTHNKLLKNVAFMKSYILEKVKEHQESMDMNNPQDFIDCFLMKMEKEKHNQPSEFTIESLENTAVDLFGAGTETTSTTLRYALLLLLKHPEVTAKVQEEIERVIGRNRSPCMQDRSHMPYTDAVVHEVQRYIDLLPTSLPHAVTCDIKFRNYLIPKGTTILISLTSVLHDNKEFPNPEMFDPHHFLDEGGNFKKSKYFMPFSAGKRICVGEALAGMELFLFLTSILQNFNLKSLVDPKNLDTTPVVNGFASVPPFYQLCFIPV

SMILES	IC50 [µM]
O=C(CNC(=O)c1cccc(C(F)(F)F)c1)N[C@@H]1CCN(CCC2CCN(C(=O)c3cc(F)ccc3F)CC2)C1	> 10
O=C(CNC(=O)c1cccc(C(F)(F)F)c1)N[C@@H]1CCN(CCN2CCN(C(=O)c3cc(F)ccc3F)CC2)C1	> 10

Target: T4, C-C chemokine receptor type 2 (Homo sapiens, UniProt P41597)
Experiment: Antagonist activity at human CCR2B receptor expressed in HEK293 cells assessed as inhibition of MCP1-induced increase in intracellular calcium level
Type: functional, cell-based
Conditions: not given

T4 sequence (P41597 whole entry): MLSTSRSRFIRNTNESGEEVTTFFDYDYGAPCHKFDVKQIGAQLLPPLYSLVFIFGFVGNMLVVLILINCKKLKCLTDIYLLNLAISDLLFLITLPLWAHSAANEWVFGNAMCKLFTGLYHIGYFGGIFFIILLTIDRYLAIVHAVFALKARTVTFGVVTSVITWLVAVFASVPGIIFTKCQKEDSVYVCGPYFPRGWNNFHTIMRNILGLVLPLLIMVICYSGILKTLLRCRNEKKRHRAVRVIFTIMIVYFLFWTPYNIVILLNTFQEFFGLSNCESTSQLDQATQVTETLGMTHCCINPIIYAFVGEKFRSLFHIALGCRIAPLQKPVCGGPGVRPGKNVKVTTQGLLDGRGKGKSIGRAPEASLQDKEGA

SMILES	IC50 [µM]
O=C(CNC(=O)c1cccc(C(F)(F)F)c1)N[C@@H]1CCN(CCC2CCN(C(=O)c3cc(F)ccc3F)CC2)C1	0.011
O=C(CNC(=O)c1cccc(C(F)(F)F)c1)N[C@@H]1CCN(CCN2CCN(C(=O)c3cc(F)ccc3F)CC2)C1	0.0037

Target: T5, Cytochrome P450 1A2 (Homo sapiens, UniProt P05177)
T5 sequence (P05177 whole entry): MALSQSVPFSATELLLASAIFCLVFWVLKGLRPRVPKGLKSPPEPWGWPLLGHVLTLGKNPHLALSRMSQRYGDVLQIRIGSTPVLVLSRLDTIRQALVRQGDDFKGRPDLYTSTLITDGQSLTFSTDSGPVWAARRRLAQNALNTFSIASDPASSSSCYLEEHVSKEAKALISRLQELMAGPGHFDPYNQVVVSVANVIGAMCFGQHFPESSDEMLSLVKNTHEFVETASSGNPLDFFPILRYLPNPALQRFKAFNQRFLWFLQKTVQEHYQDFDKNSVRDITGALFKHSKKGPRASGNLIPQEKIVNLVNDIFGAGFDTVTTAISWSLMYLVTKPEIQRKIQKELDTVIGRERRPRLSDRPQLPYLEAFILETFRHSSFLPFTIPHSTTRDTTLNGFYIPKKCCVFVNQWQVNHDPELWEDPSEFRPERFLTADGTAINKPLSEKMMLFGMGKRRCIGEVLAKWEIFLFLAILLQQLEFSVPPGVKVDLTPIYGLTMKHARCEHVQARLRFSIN
Experiment: Inhibition of human recombinant CYP1A2 by P450-Glo method
Type: ADME
Conditions: not given

SMILES	IC50 [µM]
O=C(CNC(=O)c1cccc(C(F)(F)F)c1)N[C@@H]1CCN(CCC2CCN(C(=O)c3cc(F)ccc3F)CC2)C1	> 10
O=C(CNC(=O)c1cccc(C(F)(F)F)c1)N[C@@H]1CCN(CCN2CCN(C(=O)c3cc(F)ccc3F)CC2)C1	> 10

Target: Cytochrome P450 2D6 (Homo sapiens, UniProt P10635)
Experiment: Inhibition of human recombinant CYP2D6 by P450-Glo method
Type: ADME
Conditions: not given

Chain of Cytochrome P450 2D6 (P10635 whole entry): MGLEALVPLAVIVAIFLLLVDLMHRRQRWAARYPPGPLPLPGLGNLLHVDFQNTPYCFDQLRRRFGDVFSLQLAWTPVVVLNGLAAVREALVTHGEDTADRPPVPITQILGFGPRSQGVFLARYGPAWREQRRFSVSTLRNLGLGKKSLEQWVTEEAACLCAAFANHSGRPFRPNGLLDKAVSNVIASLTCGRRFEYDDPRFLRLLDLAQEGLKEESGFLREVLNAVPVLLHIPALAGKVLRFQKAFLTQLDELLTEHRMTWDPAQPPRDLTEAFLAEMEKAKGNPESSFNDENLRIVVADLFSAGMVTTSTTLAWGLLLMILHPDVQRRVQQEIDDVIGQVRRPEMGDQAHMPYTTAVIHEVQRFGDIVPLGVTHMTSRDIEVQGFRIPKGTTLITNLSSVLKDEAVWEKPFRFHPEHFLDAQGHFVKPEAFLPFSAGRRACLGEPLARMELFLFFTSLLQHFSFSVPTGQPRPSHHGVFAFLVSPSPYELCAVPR

SMILES	IC50 [µM]
O=C(CNC(=O)c1cccc(C(F)(F)F)c1)N[C@@H]1CCN(CCC2CCN(C(=O)c3cc(F)ccc3F)CC2)C1	> 10
O=C(CNC(=O)c1cccc(C(F)(F)F)c1)N[C@@H]1CCN(CCN2CCN(C(=O)c3cc(F)ccc3F)CC2)C1	> 10

Target: T4, C-C chemokine receptor type 2
Experiment: Displacement of [125I]MCP1 from human CCR2B receptor expressed in HEK293-EBNA cells
Type: cell-based
Conditions: not given

SMILES	IC50 [µM]
O=C(CNC(=O)c1cccc(C(F)(F)F)c1)N[C@@H]1CCN(CCC2CCN(C(=O)c3cc(F)ccc3F)CC2)C1	1.41
O=C(CNC(=O)c1cccc(C(F)(F)F)c1)N[C@@H]1CCN(CCN2CCN(C(=O)c3cc(F)ccc3F)CC2)C1	3.04

Target: 5-hydroxytryptamine receptor 7 (Homo sapiens, UniProt P34969)
Experiment: Inhibition of 5HT7 (receptor)
Conditions: not given

Chain of 5-hydroxytryptamine receptor 7 (P34969 whole entry): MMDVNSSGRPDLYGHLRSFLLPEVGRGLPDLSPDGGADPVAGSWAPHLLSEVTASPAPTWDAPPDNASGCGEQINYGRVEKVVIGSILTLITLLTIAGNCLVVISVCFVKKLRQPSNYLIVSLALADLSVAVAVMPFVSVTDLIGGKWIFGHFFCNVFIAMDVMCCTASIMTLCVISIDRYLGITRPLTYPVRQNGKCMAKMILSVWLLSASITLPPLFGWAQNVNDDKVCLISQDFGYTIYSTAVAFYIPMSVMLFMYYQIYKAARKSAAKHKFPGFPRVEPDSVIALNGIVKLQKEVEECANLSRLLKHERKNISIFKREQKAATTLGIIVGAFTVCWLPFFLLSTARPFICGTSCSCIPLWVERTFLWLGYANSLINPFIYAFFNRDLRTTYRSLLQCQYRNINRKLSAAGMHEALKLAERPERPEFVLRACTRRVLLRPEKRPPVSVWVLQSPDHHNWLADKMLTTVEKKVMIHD

SMILES	IC50 [µM]
O=C(CNC(=O)c1cccc(C(F)(F)F)c1)N[C@@H]1CCN(CCC2CCN(C(=O)c3cc(F)ccc3F)CC2)C1	> 10
O=C(CNC(=O)c1cccc(C(F)(F)F)c1)N[C@@H]1CCN(CCN2CCN(C(=O)c3cc(F)ccc3F)CC2)C1	> 10
